Experimental data taken from patent publication US20260232639A1, “COMPOUNDS FOR USE IN THE TREATMENT OF SCHIZOPHRENIA” (ONTRACK THERAPEUTICS LIMITED, priority 2023, published 2026).

Columns and labels:
PSD95 = test: Simple Western of synaptic marker PSD95 in prefrontal cortex of scPCP-treated rats; type: in vivo, rat; conditions: Example 4, 21-day treatment
Method: (§1) Remaining ½ brains (remaining hemispheres) were processed for protein analysis of BDNF using ELISA (quantified in the prefrontal cortex and the dorsal hippocampus) and synaptic markers using Simple Western (quantified in the prefrontal cortex).
Prefrontal Cortex and dorsal hippocampus were dissected from the frozen brain and homogenised on ice in a 10-fold volume (mg:μL) of buffer (10 mM Trizma base, Sigma-Aldrich; […] sucrose, Sigma-Aldrich; 2 mM EDTA, Sigma-Aldrich; and protease- and phosphatase-inhibitor cocktails, Sigma-Aldrich) buffered to a pH of 7.4. Phenylmethylsulfonyl fluoride (PMSF) and sodium orthovanadate were added to the solution at a 1% (v/v) concentration. Samples were centrifuged at 800×g for 15 minutes at 4° C. […]
Protein concentrations of each sample were calculated using a Bradford Assay. […]
A WES plate was prepared following the provided instructions (SM-W004, ProteinSimple). […] Finally, the chemiluminescent substrate was added into the capillaries, and the camera detected the levels of chemiluminescence at 9 different timepoints (1-512 seconds). The software then calculated the high dynamic range (HDR) of the peaks, which is calculated from the individual exposures and provides the largest dynamic range of the signal with the lowest background. The HDR peak is then used to calculate the area under the curve, which is analogous to the quantity of protein in the sample. […]

SNAP25 = test: Simple Western of synaptic marker SNAP25 in prefrontal cortex of scPCP-treated rats; type: in vivo, rat; conditions: 21-day treatment; for SNAP25 levels in the total prefrontal cortex (FIG. 18): Example 3, vs scPCP; for scPCP-induced loss of SNAP25, relative protein level in prefrontal cortex (FIG. 21): Example 4
Method: as §1
(§2) Prefrontal Cortex and dorsal hippocampus were dissected from the frozen brain and homogenised on ice in a 10-fold volume (mg:μL) of buffer (10 mM Trizma base, Sigma-Aldrich; […] sucrose, Sigma-Aldrich; 2 mM EDTA, Sigma-Aldrich; and protease- and phosphatase-inhibitor cocktails, Sigma-Aldrich) buffered to a pH of 7.4. Phenylmethylsulfonyl fluoride (PMSF) and sodium orthovanadate were added to the solution at a 1% (v/v) concentration. Samples were centrifuged at 800×g for 15 minutes at 4° C. The supernatant was collected and centrifuged at 11,700×g for 20 minutes, and the resulting supernatant was collected and stored at −20° C. until analysis.
Protein concentrations of each sample were calculated using a Bradford Assay. Samples were diluted into protein assay dye reagent concentrate (BioRad) and compared to bovine serum albumin (Sigma) of known concentration (1.0-0.1 mg/ml protein). A standard curve was created using a simple linear regression. Standards and samples were run in triplicate. An outlying value from a triplicate was removed if the CV value was greater than 10%.
A WES plate was prepared following the provided instructions (SM-W004, ProteinSimple). Diluted samples were mixed with dithiothreitol and fluorescent master mix in an 8:1:1 ratio. Samples were denatured at 95° C. for five minutes. The samples, antibody diluent, primary antibody, secondary antibody and luminol-peroxide mix were loaded into appropriate wells. A biotinylated ladder, antibody diluent, streptavidin-HRP and luminol peroxide were also loaded. After brief centrifugation of the plate, wash buffer was added. The plate was then placed into the WES machine, whereby the load separation matrix is aspirated, and stacking matrix drawn up into each capillary. […] Finally, the chemiluminescent substrate was added into the capillaries, and the camera detected the levels of chemiluminescence at 9 different timepoints (1-512 seconds). The software then calculated the high dynamic range (HDR) of the peaks, which is calculated from the individual exposures and provides the largest dynamic range of the signal with the lowest background. The HDR peak is then used to calculate the area under the curve, which is analogous to the quantity of protein in the sample. […]
(§3) BDNF and synaptic markers were analysed using a one-way ANOVA followed by planned post hoc analysis to investigate differences between treatment groups for Prefrontal Cortex (BDNF & Synaptic markers) and Dorsal Hippocampus (BDNF) respectively.

BDNF = BDNF ELISA in brain tissue of scPCP-treated rats; type: in vivo, rat; conditions: Example 4; 21-day treatment; two different protein concentrations
Method: as §1, §2
Protein concentrations of each sample were calculated using a Bradford Assay. Samples were diluted into protein assay dye reagent concentrate (BioRad) and compared to bovine serum albumin (Sigma) of known concentration (1.0-0.1 mg/ml protein). […]
as §3

scPCP treated rats [1] = test: Novel object recognition (NOR) test in sub-chronic PCP treated rats; conditions: for Time spent exploring the novel versus familiar object in the retention trial (FIG. 6): 20-day treatment with compound of Formula I 10 & 30 mg/kg p.o.; for Time spent exploring the novel versus familiar object in the retention trial (FIG. 2): compound of Formula I 10 & 30 mg/kg p.o.
parvalbumin interneurons = test: Parvalbumin immunohistochemistry in brains of scPCP-treated rats; type: in vivo, rat; conditions: 21-day treatment, 30 mg/kg p.o.
Method: Animals were culled by increasing concentration of carbon dioxide and death was confirmed by cervical dislocation. Brains were removed, frozen on dry ice and stored at −80° C. until analysis.
½ brains (one hemisphere) were randomly selected and processed for parvalbumin immunohistochemistry (IHC), quantified in the prefrontal cortex and dorsal hippocampus.
Sections (30 μm thickness) were washed in 1× PBS three times for five minutes each. Sections underwent heat-induced antigen retrieval in sodium citrate buffer (0.294% (w/v) sodium citrate, 0.07% (v/v) tween-20, 500 ml distilled water, pH adjusted to 6.0) for 30 minutes at 80° C. Unless otherwise stated, samples were washed twice in 1× PBS between each step.
Parvalbumin (PV) sections were processed for light microscopy. […]
Images were acquired on a 3D-Histech Pannoramic-250 microscope slide-scanner using a 20×/0.80 Plan Apochromat objective (Zeiss). […] For PV images, the region of interest was delineated, and the number of cell detections were manually counted within the CaseViewer software. Density was calculated by dividing the number of positive cell detections by the area of the region of interest.
Parvalbumin density in the Prefrontal Cortex and Dorsal Hippocampus were analysed using a repeated measure two-way ANOVA with region and treatment as fixed factors. […]

scPCP treated rats [2] = test: Social interaction test in sub-chronic PCP treated rats; conditions: for Object exploration duration, inanimate object (FIG. 10): 21-day test article 10 & 30 mg/kg p.o.
scPCP treated rats [3] = test: Attentional set-shifting task (ASST) in sub-chronic PCP treated rats; conditions: for Number of trials to criterion in the EDS phase (FIG. 20): 21-day treatment, compared to scPCP group
scPCP treated rats [4] = conditions: 7-day treatment; female rats; McLean et al., 2008, 2012; cited from earlier work
[5] = target: tropomyosin receptor kinase B (TrkB) (Homo sapiens, UniProt Q16620); conditions: known from the art; cited from earlier work
[6] = acute risperidone 0.1 mg/kg i.p., scPCP rats
[7] = acute treatment, risperidone 0.1 mg/kg i.p., scPCP rats
[8] = acute risperidone 0.1 mg/kg i.p.
[9] = 20-day phase, scPCP rats, acute risperidone 0.1 mg/kg i.p.
[10] = acute phase, scPCP rats, risperidone 0.1 mg/kg i.p., 60 min prior to testing

Chain of tropomyosin receptor kinase B (TrkB) (Q16620 32-822, species assumed): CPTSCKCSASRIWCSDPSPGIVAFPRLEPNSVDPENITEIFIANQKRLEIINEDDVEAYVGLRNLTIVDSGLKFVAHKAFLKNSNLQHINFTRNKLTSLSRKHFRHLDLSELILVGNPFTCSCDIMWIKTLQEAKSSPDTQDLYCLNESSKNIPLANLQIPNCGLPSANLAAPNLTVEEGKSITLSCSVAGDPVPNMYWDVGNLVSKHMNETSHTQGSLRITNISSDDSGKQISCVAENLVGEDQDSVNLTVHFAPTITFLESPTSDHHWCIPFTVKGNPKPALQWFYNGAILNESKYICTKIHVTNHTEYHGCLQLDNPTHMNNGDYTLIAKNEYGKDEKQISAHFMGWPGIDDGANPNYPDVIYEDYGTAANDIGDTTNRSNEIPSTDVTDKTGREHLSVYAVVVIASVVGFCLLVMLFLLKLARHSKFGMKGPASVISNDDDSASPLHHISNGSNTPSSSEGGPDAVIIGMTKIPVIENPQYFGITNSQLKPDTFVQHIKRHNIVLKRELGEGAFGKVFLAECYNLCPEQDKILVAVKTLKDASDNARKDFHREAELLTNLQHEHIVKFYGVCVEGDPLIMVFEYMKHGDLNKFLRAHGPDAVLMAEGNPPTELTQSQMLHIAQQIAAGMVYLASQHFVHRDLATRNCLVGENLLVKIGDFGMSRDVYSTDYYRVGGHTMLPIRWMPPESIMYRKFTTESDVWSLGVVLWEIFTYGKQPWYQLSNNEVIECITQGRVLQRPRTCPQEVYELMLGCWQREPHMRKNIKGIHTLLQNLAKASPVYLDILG

## N#Cc1ccc(-c2cc(=O)c3ccc4[nH]c(C(F)(F)F)nc4c3o2)cc1 [Compound of Formula I, 4-(6-oxo-2-(trifluoromethyl)-3,6-dihydrochromeno[7,8-d]imidazol-8-yl)benzonitrile]
PSD95; 30 mg/kg p.o.
  scPCP-induced loss of PSD95, relative protein level in prefrontal cortex (FIG. 21): not
PSD95; 3 and 10 mg/kg p.o.
  scPCP-induced loss of PSD95, relative protein level in prefrontal cortex (FIG. 21): significantly alleviated
SNAP25; 10 mg/kg p.o.
  SNAP25 levels in the total prefrontal cortex (FIG. 18): increased significantly
SNAP25; 30 mg/kg p.o.
  SNAP25 levels in the total prefrontal cortex (FIG. 18): not
  scPCP-induced loss of SNAP25, relative protein level in prefrontal cortex (FIG. 21): not
SNAP25; 3 and 10 mg/kg p.o.
  scPCP-induced loss of SNAP25, relative protein level in prefrontal cortex (FIG. 21): significantly alleviated
BDNF
  Concentration of BDNF in the dorsal hippocampus (FIG. 22): increase the level of BDNF back to that of vehicle treated animals
scPCP treated rats [1]; [6]
  Time spent exploring the novel versus familiar object in the retention trial (FIG. 6): dose dependent statistically significant effect
scPCP treated rats [1]; 20-day treatment, 30 mg/kg p.o., compared to scPCP animals without treatment
  Discrimination index (DI) (FIG. 7): statistically significant increase
scPCP treated rats [1]; [7]
  Time spent exploring the novel versus familiar object in the retention trial (FIG. 2): not shown to have a difference
Parvalbumin interneurons; compared to scPCP group
  PV cell density in the total prefrontal cortex (FIG. 13): significantly increased
Parvalbumin interneurons; vs scPCP
  PV cell density in subregions of the prefrontal cortex (Cg1, PrL, IL) (FIG. 12): significantly increased
scPCP treated rats [2]; [8]
  Object exploration duration, inanimate object (FIG. 10): no differences
scPCP treated rats [2]; 21-day treatment, 10 & 30 mg/kg p.o.
  Sniffing duration, social impairment deficit (FIG. 9): able to rescue the social impairment deficit in the scPCP treated rats in a dose dependent manner
scPCP treated rats [3]; 3 mg/kg p.o.
  Number of trials to criterion in the EDS phase (FIG. 20): No significant reduction
scPCP treated rats [3]; 10 mg/kg p.o.
  Number of trials to criterion in the EDS phase (FIG. 20): near significant reductions
scPCP treated rats [3]; 30 mg/kg p.o.
  Number of trials to criterion in the EDS phase (FIG. 20): significant reductions

## Cc1nc2n(c(=O)c1CCN1CCC(c3noc4cc(F)ccc34)CC1)CCCC2 [Risperidone, risperidone]
scPCP treated rats [1]; [9]
  Acquisition total exploration time: 25.5 ± 3.4 s
  Retention total exploration time: 17.8 ± 1.1 s
scPCP treated rats [1]; [6]
  Time spent exploring the novel versus familiar object in the retention trial (FIG. 6): statistically significant increase
scPCP treated rats [1]; [10]
  Acquisition total exploration time: 22.81 ± 4.03 s
  Retention total exploration time: 23.10 ± 2.92 s
scPCP treated rats [1]; [7]
  Time spent exploring the novel versus familiar object in the retention trial (FIG. 2): statistically significant increase
  Discrimination index (DI) (FIG. 3): higher discrimination index (DI) than those without treatment
scPCP treated rats [2]; [8]
  Object exploration duration, inanimate object (FIG. 10): no differences
scPCP treated rats [2]; acute risperidone 0.1 mg/kg i.p., 60 min prior to testing
  Sniffing duration (FIG. 9): increase the amount of time the rat spent sniffing to a similar level as that observed by the higher dose of test article
scPCP treated rats [4]
  Reversal of scPCP deficit in the extra-dimensional shift: reversed
scPCP treated rats [3]; [8]
  scPCP-induced deficit in the EDS phase (FIG. 20): significantly (P<0.01) reversed

## O=C(CCCN1CCC(O)(c2ccc(Cl)cc2)CC1)c1ccc(F)cc1 [haloperidol]
scPCP treated rats [4]
  Reversal of scPCP deficit in the extra-dimensional shift: not

## O=c1cc(-c2ccccc2)oc2c(O)c(O)ccc12 [tropoflavin, 7,8-dihydroxyflavone]
[5]
  Agonism of TrkB: potent and selective agonist
